Test results from patent publication US20140018350A1, “COMBINATION OF SULFONAMIDE COMPOUND AND TAFLUPROST” (priority 2012, published 2014).

Experiment: Intraocular pressure lowering effect in monkeys with normal intraocular pressure after instillation
Assay type: in vivo, Cynomolgus monkey
Conditions: male cynomolgus monkeys with normal intraocular pressure, six per group, 20 μL instillation into one eye, 0.0006 w/v % present compound solution and/or Taflotan 0.0015%
Source text: In order to study the usefulness of a combination of the present compound with tafluprost, an intraocular pressure lowering effect when the present compound and tafluprost were concomitantly administered to experimental animals (monkeys with normal intraocular pressure) was examined.
An intraocular pressure lowering effect when the present compound and tafluprost were concomitantly administered was examined. As comparison subjects, intraocular pressure lowering effects when the present compound or tafluprost was administered singly were also examined. As a control, the base and physiological saline were administered.
Present compound solution: a 0.0006 w/v % present compound solution (instillation amount: 20 μL) […]
(2) Intraocular pressure was measured immediately before administering the test compound solution, and the measured intraocular pressure was defined as initial intraocular pressure. […]
(4) At 2, 4, 6 and 8 hours after instilling the present compound solution, one drop of the 0.4% oxybuprocaine hydrochloride eye drop was instilled into the eyes for which intraocular pressure was to be measured to effect local anesthesia, and then, intraocular pressure was measured. The intraocular pressure was measured in triplicate for each eye to obtain an average of three measurements, which is shown as the result. […]

SMILES: CC(C)OC(=O)CNc1cccc(CN(Cc2ccc(-n3cccn3)cc2)S(=O)(=O)c2cccnc2)n1 [Present compound, isopropyl(6-{[4-(pyrazol-1-yl)benzyl](pyridin-3-ylsulfonyl)aminomethyl}pyridin-2-ylamino)acetate]
- Intraocular pressure lowering degree (change relative to average of control group) at 6 hours after instillation: 2.6 mmHg

SMILES: CC(C)OC(=O)CCC/C=C\C[C@@H]1[C@@H](/C=C/C(F)(F)COc2ccccc2)[C@H](O)C[C@@H]1O [tafluprost, 1-methylethyl (5Z)-7-{(1R,2R,3R,5S)-2-[(1E)-3,3-difluoro-4-phenoxy-1-butenyl]-3,5-dihydroxycyclopentyl}-5-heptenoate]
- Intraocular pressure lowering degree (change relative to average of control group) at 6 hours after instillation: 1.9 mmHg
